From ChEMBL document CHEMBL6121006, “Marine natural product-inspired discovery of novel BRD4 inhibitors with anti-inflammatory activity” (Eur J Med Chem, 2025)
Active and inactive are the calls of the source. No cut-off for these calls is given here.

Assays:
Mus musculus [1] = test: Antiinflammatory activity against C57BL/6 mouse acute inflammation model assessed as reduction in LPS induced lung destruction at 50 to 100 mg/kg, po pre-administered for 2 hrs followed by LPS stimulation for 6 hrs; format: functional, organism-based; conditions: dose 50-100 mg/kg, time 8.0 hrs
Mus musculus [2] = test: Antiinflammatory activity against LPS-induced C57BL/6 mouse acute inflammation model assessed as improvement of excessive inflammatory cell infiltration in liver at 50 to 100 mg/kg, po pre-administered for 2 hrs followed by LPS stimulation for 6 hrs; format: functional, organism-based; conditions: dose 50-100 mg/kg, time 8.0 hrs
RAW264.7 [3] = test: Anti-inflammatory activity in mouse RAW264.7 cells assessed as inhibition of LPS-induced IL-6 level preincubated with compound for 2 hrs followed by LPS stimulation and measured after 22 hrs by ELISA method; format: functional, cell-based; conditions: dose 2.5-20 µM, time 24.0 hrs
Mus musculus [4] = test: Antiinflammatory activity against C57BL/6 mouse acute inflammation model assessed as reduction in LPS induced lung edema at 50 to 100 mg/kg, po pre-administered for 2 hrs followed by LPS stimulation for 6 hrs; format: functional, organism-based; conditions: dose 50-100 mg/kg, time 8.0 hrs
RAW264.7 [5] = test: Anti-inflammatory activity in mouse RAW264.7 cells assessed as inhibition of LPS-induced IL-6 expression preincubated with compound for 2 hrs followed by LPS stimulation and measured after 6 hrs by RT-qPCR analysis; format: functional, cell-based; conditions: dose 2.5-20 µM, time 8.0 hrs
[6] = target: CREB-binding protein (Homo sapiens) (UniProt Q92793); test: Inhibition of CREBBP (unknown origin) at 1 uM incubated for 2 hrs by TR-FRET assay relative to control
[7] = Toxicity in C57BL/6 mouse effect on lung at 100 mg/kg, po measured after 24 hrs; format: organism-based; conditions: in vivo
[8] = target: Bromodomain testis-specific protein (Homo sapiens) (UniProt Q58F21); test: Inhibition of BRDT BD1 (unknown origin) at 1 uM incubated for 2 hrs by TR-FRET assay relative to control
[9] = Toxicity in C57BL/6 mouse effect on liver at 100 mg/kg, po measured after 24 hrs; format: organism-based; conditions: in vivo
[10] = target: Bromodomain-containing protein 3 (Homo sapiens) (UniProt Q15059); test: Inhibition of BRD3 BD1 (unknown origin) at 1 uM incubated for 2 hrs by TR-FRET assay relative to control
Sequence of Bromodomain-containing protein 3 (Homo sapiens) (Q15059 2-726 limits assumed): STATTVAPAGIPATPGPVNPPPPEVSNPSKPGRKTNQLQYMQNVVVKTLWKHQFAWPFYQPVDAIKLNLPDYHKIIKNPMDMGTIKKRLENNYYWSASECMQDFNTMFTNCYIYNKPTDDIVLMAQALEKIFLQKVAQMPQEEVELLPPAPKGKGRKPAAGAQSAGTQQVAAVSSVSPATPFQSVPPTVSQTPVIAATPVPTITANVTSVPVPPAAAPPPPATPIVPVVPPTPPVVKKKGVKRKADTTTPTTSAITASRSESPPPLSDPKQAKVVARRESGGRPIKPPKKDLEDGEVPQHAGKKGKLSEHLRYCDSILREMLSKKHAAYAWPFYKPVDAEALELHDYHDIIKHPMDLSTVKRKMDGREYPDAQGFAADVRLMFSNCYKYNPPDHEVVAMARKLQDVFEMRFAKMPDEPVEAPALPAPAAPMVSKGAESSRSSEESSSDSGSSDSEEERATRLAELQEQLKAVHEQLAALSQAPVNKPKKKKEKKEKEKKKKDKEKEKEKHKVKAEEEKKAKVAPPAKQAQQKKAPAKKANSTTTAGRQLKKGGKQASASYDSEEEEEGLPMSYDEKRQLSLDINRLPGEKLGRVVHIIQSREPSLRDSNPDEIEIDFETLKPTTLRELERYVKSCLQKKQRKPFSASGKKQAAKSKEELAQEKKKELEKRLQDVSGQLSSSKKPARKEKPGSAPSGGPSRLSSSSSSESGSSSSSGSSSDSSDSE

Sequence of CREB-binding protein (Homo sapiens) (Q92793 2-2442 limits assumed): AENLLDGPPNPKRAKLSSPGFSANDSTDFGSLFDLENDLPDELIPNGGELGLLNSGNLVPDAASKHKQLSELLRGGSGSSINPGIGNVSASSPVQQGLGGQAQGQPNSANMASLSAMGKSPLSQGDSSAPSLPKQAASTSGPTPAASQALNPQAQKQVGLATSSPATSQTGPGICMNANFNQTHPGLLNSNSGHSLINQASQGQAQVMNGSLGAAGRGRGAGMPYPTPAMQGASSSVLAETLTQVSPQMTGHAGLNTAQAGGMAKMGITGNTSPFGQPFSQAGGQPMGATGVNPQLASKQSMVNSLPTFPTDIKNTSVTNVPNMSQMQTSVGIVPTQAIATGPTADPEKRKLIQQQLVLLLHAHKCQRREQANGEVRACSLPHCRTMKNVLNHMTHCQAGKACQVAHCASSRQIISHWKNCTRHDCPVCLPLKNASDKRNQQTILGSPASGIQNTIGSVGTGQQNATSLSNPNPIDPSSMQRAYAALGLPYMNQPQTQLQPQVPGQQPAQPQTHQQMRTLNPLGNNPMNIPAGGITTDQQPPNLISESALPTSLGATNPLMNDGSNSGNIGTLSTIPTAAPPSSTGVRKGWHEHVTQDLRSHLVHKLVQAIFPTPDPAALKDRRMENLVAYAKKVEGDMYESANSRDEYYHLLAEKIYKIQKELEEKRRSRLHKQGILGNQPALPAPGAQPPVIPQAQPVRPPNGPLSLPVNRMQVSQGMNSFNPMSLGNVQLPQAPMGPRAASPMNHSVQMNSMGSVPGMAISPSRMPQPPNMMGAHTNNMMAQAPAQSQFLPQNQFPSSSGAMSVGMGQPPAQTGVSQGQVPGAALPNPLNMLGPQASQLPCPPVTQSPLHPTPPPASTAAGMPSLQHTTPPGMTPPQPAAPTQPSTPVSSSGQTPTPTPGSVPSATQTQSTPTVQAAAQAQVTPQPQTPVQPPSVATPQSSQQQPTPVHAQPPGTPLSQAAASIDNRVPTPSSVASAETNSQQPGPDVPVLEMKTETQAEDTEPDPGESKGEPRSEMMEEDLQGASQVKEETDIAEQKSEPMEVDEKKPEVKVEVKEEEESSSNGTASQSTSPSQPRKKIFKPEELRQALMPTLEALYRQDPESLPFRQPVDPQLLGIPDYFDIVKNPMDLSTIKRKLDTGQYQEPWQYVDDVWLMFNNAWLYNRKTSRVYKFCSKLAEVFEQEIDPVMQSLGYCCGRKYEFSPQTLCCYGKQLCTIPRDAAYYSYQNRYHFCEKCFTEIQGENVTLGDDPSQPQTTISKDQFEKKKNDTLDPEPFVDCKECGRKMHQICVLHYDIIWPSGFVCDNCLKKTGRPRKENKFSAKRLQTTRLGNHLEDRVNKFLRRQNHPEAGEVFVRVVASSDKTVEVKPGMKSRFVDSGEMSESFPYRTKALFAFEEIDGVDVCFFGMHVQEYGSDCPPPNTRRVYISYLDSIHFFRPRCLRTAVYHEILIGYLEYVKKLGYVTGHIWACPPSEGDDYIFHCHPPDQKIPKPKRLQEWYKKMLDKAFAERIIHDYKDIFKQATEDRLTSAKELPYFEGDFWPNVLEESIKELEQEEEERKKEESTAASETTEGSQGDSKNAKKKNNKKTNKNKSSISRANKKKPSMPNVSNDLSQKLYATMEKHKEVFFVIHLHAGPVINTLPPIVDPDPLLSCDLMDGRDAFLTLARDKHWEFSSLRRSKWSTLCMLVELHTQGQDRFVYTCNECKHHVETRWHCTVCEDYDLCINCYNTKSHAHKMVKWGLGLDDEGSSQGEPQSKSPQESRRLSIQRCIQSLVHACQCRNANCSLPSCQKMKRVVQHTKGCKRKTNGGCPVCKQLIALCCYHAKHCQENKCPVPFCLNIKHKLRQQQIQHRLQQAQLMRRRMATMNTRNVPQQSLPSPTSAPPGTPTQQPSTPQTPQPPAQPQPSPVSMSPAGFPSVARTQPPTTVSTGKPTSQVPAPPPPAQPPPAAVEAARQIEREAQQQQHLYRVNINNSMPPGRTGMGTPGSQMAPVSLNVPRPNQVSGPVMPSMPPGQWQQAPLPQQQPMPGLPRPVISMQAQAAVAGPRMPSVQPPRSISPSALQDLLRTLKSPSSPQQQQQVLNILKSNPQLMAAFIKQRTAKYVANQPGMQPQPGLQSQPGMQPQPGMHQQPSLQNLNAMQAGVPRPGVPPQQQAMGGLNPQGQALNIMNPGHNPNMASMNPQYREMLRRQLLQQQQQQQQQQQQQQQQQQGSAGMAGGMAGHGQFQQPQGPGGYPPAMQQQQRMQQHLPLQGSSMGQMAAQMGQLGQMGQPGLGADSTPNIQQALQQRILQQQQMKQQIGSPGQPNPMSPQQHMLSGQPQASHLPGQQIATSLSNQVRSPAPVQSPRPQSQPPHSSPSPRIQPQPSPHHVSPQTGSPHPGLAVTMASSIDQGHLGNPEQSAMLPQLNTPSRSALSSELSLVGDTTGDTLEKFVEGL

SMILES: COc1ccc(/C=C/c2nc3cc(OC)cc(OC)c3c(=O)[nH]2)cc1
- Activity (Mus musculus [1]): Active
- Activity (Mus musculus [2]): Active
- Activity (RAW264.7 [3]): Dose-dependent-effect
- Activity (Mus musculus [4]): Active
- Activity (RAW264.7 [5]): Dose-dependent-effect
- inhibition [6]: 15%
- Activity [7]: Non-toxic
- inhibition [8]: 6%
- Activity [9]: Non-toxic
- inhibition [10]: 25%
